Earlier results on one molecule are cited in patent US20230095832A1, “ADHESION BARRIER COMPOSITION, METHODS OF FABRICATION AND USE THEREOF” (SPOROGENICS PTE. LTD., priority 2020, published 2023).

In the data set the test system is intra-abdominal adhesions.

Take `O=C(O)c1cc(O)c(O)c(O)c1` [gallic acid]: the “IL-6, TNF-α, TGF-b1 serum levels and NF-kB phosphorylation” value (further studies) is listed as “significantly reduced”. In addition, the intra-abdominal adhesions entry (rats, compared to a control) was “decrease intra-abdominal adhesions”.
